What follows are compounds tested against T1, human β3 adrenergic receptor (Homo sapiens, UniProt P13945) (assay: Beta-3 agonist in vitro functional assay (cAMP production, LANCE, transfected CHO cells)). Details: Table 1, CHO cells with cloned β3 receptor, ligands titrated 10^-10 M to 10^-5 M, read-out: Human β3 agonist functional activity.
T1 construct: expressed in transfected cells; host or cells: CHO (Chinese hamster ovary) cells, stably transfected
Type: cell-based
Description: Functional Assay: For compounds in examples 1-50, cAMP production in response to ligand is measured according to Barton, et al. (1991, Agonist-induced desensitization of D2 dopamine receptors in human Y-79 retinoblastoma cells. Mol. Pharmacol. […]:650-658) modified as follows. The cAMP production is measured using a homogenous time-resolved fluorescence resonance energy transfer immunoassay (LANCE™, Perkin Elmer) according to the manufacture's instructions. Chinese hamster ovary (CHO) cells, stably transfected with the cloned β-adrenergic receptor (β1, β2 or β3) are harvested after 3 days of subculturing. Harvesting of cells is done with Enzyme-free Dissociation Media (Specialty Media). Cells are then counted and resuspended in assay buffer (Hank's Balanced salt solution supplemented with 5 mM HEPES, […]) containing a phosphodiesterase inhibitor (IBMX, 0.6 mM). The reaction is initiated by mixing 6,000 cells in 6 μL with 6 μL Alexa Fluor labeled cAMP antibody (LANCE™ kit) which is then added to an assay well containing 12 μL of compound (diluted in assay buffer to 2× final concentration). The reaction proceeds for 30 minutes at RT and is terminated by the addition of 24 ul detection buffer (LANCE™ kit). The assay plate is then incubated for 1 h at RT and time-resolved fluorescence measured on a Perkin Elmer Envision reader or equivalent. The unknown cAMP level is determined by comparing fluorescence levels to a cAMP standard curve.
The non-selective, full agonist β-adrenergic ligand isoproterenol is used at all three receptors to determine maximal stimulation. The human β3 adrenergic receptor (AR) selective ligand (S)-N-[4-[2-[[2-hydroxy-3-(4-hydroxyphenoxy)propyl]amino]ethyl]-phenyl]-4-iodobenzenesulfonamide is used as a control in all assays. […] The EC50 is defined as the concentration of compound that gives 50% activation of its own maximum. Data are analyzed using Microsoft Excel and Graphpad Prism or an internally developed data analysis software package.
The EC50 is defined as the concentration of compound that gives 50% activation of its own maximum. Functional antagonist assays are performed similar to described above; however, unknown ligands are titrated at β-adrenergic receptor subtypes 1 and 2 at a final concentration in the assay of 10^-12 M to 10^-5 M in the presence of 10^-9 M full agonist β-adrenergic ligand isoproterenol. The EC50 is defined as the concentration of compound that gives 50% inhibition of the full agonist response. Data are analyzed using Microsoft Excel and Graphpad Prism or an internally developed data analysis software package.

T1 sequence (P13945 whole entry): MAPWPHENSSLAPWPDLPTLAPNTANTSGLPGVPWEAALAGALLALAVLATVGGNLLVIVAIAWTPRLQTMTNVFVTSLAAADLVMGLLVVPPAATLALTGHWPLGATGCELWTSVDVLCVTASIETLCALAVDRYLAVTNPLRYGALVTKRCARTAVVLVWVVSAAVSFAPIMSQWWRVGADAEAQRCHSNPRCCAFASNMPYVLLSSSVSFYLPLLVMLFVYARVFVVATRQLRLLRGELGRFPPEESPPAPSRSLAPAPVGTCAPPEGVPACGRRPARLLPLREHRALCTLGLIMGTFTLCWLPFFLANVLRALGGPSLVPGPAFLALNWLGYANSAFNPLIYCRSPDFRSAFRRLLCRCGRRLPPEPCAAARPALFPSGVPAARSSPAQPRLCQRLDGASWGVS

SMILES	EC50
Cc1cc(C)nc(CNC(=O)c2ccc(C[C@@H]3CC[C@H]([C@H](O)c4ccccc4)N3)cc2)n1 [Example 3]	10 to 99.9 nM
O=C(NCc1ncccc1F)c1ccc(C[C@@H]2CC[C@H]([C@H](O)c3ccccc3)N2)cc1 [Example 4]	10 to 99.9 nM
O=C(NCc1cc(Cl)ccn1)c1ccc(C[C@@H]2CC[C@H]([C@H](O)c3ccccc3)N2)cc1 [Example 5]	10 to 99.9 nM
COC(=O)c1ccnc(CNC(=O)c2ccc(C[C@@H]3CC[C@H]([C@H](O)c4ccccc4)N3)cc2)c1 [Example 7]	10 to 99.9 nM
O=C(NCc1ncccn1)c1ccc(C[C@@H]2CC[C@H]([C@H](O)c3ccccc3)N2)cc1 [Example 9]	100 to 999 nM
O=C(NCc1cnccn1)c1ccc(C[C@@H]2CC[C@H]([C@H](O)c3ccccc3)N2)cc1 [Example 10]	100 to 999 nM
CC(NC(=O)c1ccc(C[C@@H]2CC[C@H]([C@H](O)c3ccccc3)N2)cc1)c1cnccn1 (stereo partly drawn) [Example 11]	999 to 3000 nM
O=C(NCc1ccncn1)c1ccc(C[C@@H]2CC[C@H]([C@H](O)c3ccccc3)N2)cc1 [Example 12]	10 to 99.9 nM
Cc1cccnc1CNC(=O)c1ccc(C[C@@H]2CC[C@H]([C@H](O)c3ccccc3)N2)cc1 [Example 13]	10 to 99.9 nM
O=C(NCc1nccc(C(F)(F)F)n1)c1ccc(C[C@@H]2CC[C@H]([C@H](O)c3ccccc3)N2)cc1 [Example 14]	10 to 99.9 nM
O=C(NCc1nccc(C2CC2)n1)c1ccc(C[C@@H]2CC[C@H]([C@H](O)c3ccccc3)N2)cc1 [Example 15]	10 to 99.9 nM
Cc1cc(C2CC2)nc(CNC(=O)c2ccc(C[C@@H]3CC[C@H]([C@H](O)c4ccccc4)N3)cc2)n1 [Example 16]	10 to 99.9 nM
Cc1ccnc(CNC(=O)c2ccc(C[C@@H]3CC[C@H]([C@H](O)c4ccccc4)N3)cc2)n1 [Example 18]	10 to 99.9 nM
Cc1ccnc(CNC(=O)c2ccc(C[C@@H]3CC[C@H]([C@H](O)c4ccccc4)N3)cc2)c1 [Example 19]	10 to 99.9 nM
Cc1nccnc1CNC(=O)c1ccc(C[C@@H]2CC[C@H]([C@H](O)c3ccccc3)N2)cc1 [Example 20]	10 to 99.9 nM
Cc1cc(-c2ccccc2)nc(CNC(=O)c2ccc(C[C@@H]3CC[C@H]([C@H](O)c4ccccc4)N3)cc2)n1 [Example 22]	10 to 99.9 nM

SMILES	EC50
O=C(NCc1cc(-c2ccccc2)ncn1)c1ccc(C[C@@H]2CC[C@H]([C@H](O)c3ccccc3)N2)cc1 [Example 23]	10 to 99.9 nM
O=C(NCc1ncc(-c2ccccc2)cn1)c1ccc(C[C@@H]2CC[C@H]([C@H](O)c3ccccc3)N2)cc1 [Example 24]	10 to 99.9 nM
Nc1nc(CNC(=O)c2ccc(C[C@@H]3CC[C@H]([C@H](O)c4ccccc4)N3)cc2)cs1 [Example 25]	10 to 99.9 nM
Nc1nc(CNC(=O)c2ccc(C[C@@H]3CC[C@H]([C@H](O)c4cccnc4)N3)cc2)cs1 [Example 26]	10 to 99.9 nM
Cc1nc(CNC(=O)c2ccc(C[C@@H]3CC[C@H]([C@H](O)c4ccccc4)N3)cc2)cs1 [Example 27]	10 to 99.9 nM
O=C(NCc1cc(-c2ccccc2)no1)c1ccc(C[C@@H]2CC[C@H]([C@H](O)c3cccnc3)N2)cc1 [Example 30]	10 to 99.9 nM
O=C(NCc1cc(-c2ccccc2)no1)c1ccc(C[C@@H]2CC[C@H]([C@H](O)c3ccc[n+]([O-])c3)N2)cc1 [Example 31]	100 to 999 nM
O=C(NCc1nc(-c2ccccc2)n[nH]1)c1ccc(C[C@@H]2CC[C@H]([C@H](O)c3cccnc3)N2)cc1 [Example 33]	1 to 9.9 nM
Cn1c(CNC(=O)c2ccc(C[C@@H]3CC[C@H]([C@H](O)c4cccnc4)N3)cc2)nc2ccccc21 [Example 36]	10 to 99.9 nM
O=C(NCc1nc2ccncc2[nH]1)c1ccc(C[C@@H]2CC[C@H]([C@H](O)c3cccnc3)N2)cc1 [Example 39]	10 to 99.9 nM
O=C(NCc1nc2ccccc2s1)c1ccc(C[C@@H]2CC[C@H]([C@H](O)c3cccnc3)N2)cc1 [Example 41]	10 to 99.9 nM
O=C(NCc1nccc2ccccc12)c1ccc(C[C@@H]2CC[C@H]([C@H](O)c3cccnc3)N2)cc1 [Example 43]	10 to 99.9 nM
O=C(NC1CCc2scnc21)c1ccc(C[C@@H]2CC[C@H]([C@H](O)c3ccccc3)N2)cc1 (stereo partly drawn) [Example 47]	100 to 999 nM
O=C(NC1CCCc2cccnc21)c1ccc(C[C@@H]2CC[C@H]([C@H](O)c3ccccc3)N2)cc1 (stereo partly drawn) [Example 48]	100 to 999 nM
CN1CCC(NC(=O)c2ccc(C[C@@H]3CC[C@H]([C@H](O)c4cccnc4)N3)cc2)C1=O (stereo partly drawn) [Example 49]	100 to 999 nM

Second part, the compound after the results:

EC50	SMILES
10 to 99.9 nM	O=C(NCc1ccccn1)c1ccc(C[C@@H]2CC[C@H]([C@H](O)c3ccccc3)N2)cc1 [Example 2]
10 to 99.9 nM	O=C(NCc1cccc(Cl)n1)c1ccc(C[C@@H]2CC[C@H]([C@H](O)c3ccccc3)N2)cc1 [Example 6]
100 to 999 nM	O=C(NCc1cccnn1)c1ccc(C[C@@H]2CC[C@H]([C@H](O)c3ccccc3)N2)cc1 [Example 8]
100 to 999 nM	Cc1cccc(CNC(=O)c2ccc(C[C@@H]3CC[C@H]([C@H](O)c4ccccc4)N3)cc2)n1 [Example 17]
10 to 99.9 nM	O=C(NCc1nccc(-c2ccccc2)n1)c1ccc(C[C@@H]2CC[C@H]([C@H](O)c3ccccc3)N2)cc1 [Example 21]
10 to 99.9 nM	O=C(NCc1nc(C(F)(F)F)cc(=O)[nH]1)c1ccc(C[C@@H]2CC[C@H]([C@H](O)c3ccccc3)N2)cc1 [Example 28]
10 to 99.9 nM	O=C(NCc1cc(-c2ccccc2)no1)c1ccc(C[C@@H]2CC[C@H]([C@H](O)c3ccccc3)N2)cc1 [Example 29]
10 to 99.9 nM	O=C(NCc1cc(-c2ccccc2)n[nH]1)c1ccc(C[C@@H]2CC[C@H]([C@H](O)c3ccccc3)N2)cc1 [Example 32]
10 to 99.9 nM	O=C(NCc1nc2ccccc2[nH]1)c1ccc(C[C@@H]2CC[C@H]([C@H](O)c3ccccc3)N2)cc1 [Example 34]
10 to 99.9 nM	Cn1c(CNC(=O)c2ccc(C[C@@H]3CC[C@H]([C@H](O)c4ccccc4)N3)cc2)nc2ccccc21 [Example 35]
10 to 99.9 nM	O=C(NCc1nc2cccnc2[nH]1)c1ccc(C[C@@H]2CC[C@H]([C@H](O)c3ccccc3)N2)cc1 [Example 37]
1 to 9.9 nM	O=C(NCc1nc2ccncc2[nH]1)c1ccc(C[C@@H]2CC[C@H]([C@H](O)c3ccccc3)N2)cc1 [Example 38]
10 to 99.9 nM	O=C(NCc1nc2ccccc2s1)c1ccc(C[C@@H]2CC[C@H]([C@H](O)c3ccccc3)N2)cc1 [Example 40]
1 to 9.9 nM	O=C(NCc1nccc2ccccc12)c1ccc(C[C@@H]2CC[C@H]([C@H](O)c3ccccc3)N2)cc1 [Example 42]
10 to 99.9 nM	O=C(NCc1ccc2ccccc2n1)c1ccc(C[C@@H]2CC[C@H]([C@H](O)c3ccccc3)N2)cc1 [Example 44]
10 to 99.9 nM	O=C(NCc1cc2ccccc2cn1)c1ccc(C[C@@H]2CC[C@H]([C@H](O)c3ccccc3)N2)cc1 [Example 45]
100 to 999 nM	O=C(NCc1ccccc1-c1c[nH]cn1)c1ccc(C[C@@H]2CC[C@H]([C@H](O)c3ccccc3)N2)cc1 [Example 46]

Same assay, conditions: Table 2, CHO cells with cloned β3 receptor, ligands titrated 10^-10 M to 10^-5 M, read-out: Human β3 agonist functional activity

SMILES	EC50
Cc1cc(C)nc(CNC(=O)c2ccc(C[C@@H]3CC[C@H]([C@H](O)c4ccc(F)cc4)N3)cc2)n1 [Example 50]	10 to 99.9 nM

Same assay, conditions: Table 3, CHO cells with cloned β3 receptor, ligands titrated 10^-12 M to 10^-5 M, read-out: Human β3 agonist functional activity

EC50	SMILES
100 to 999 nM	CN(C(=O)c1ccc(CC2CCC(C(O)c3ccccc3)N2)cc1)C(c1ccccn1)C1CC1 (mixture of isomers) [Example 96]
10 to 99.9 nM	CC(C1COc2ccccc2O1)N(C)C(=O)c1ccc(C[C@@H]2CC[C@H]([C@H](O)c3ccccc3)N2)cc1 (single isomer, unassigned) [Example 94]
100 to 999 nM	CC(C1COc2ccccc2O1)N(C)C(=O)c1ccc(C[C@@H]2CC[C@H]([C@H](O)c3ccccc3)N2)cc1 (single isomer, unassigned) [Example 95]

Same assay, conditions: given as a range, CHO cells with cloned β3 receptor, read-out: human Beta-3 agonist functional activity

EC50	SMILES
1 to 9.9 nM	O=C(NCc1nc(-c2ccccc2)n[nH]1)c1ccc(C[C@@H]2CC[C@H]([C@H](O)c3ccccc3)N2)cc1 [Example 1, 4-({(2S,5R)-5-[(R)-hydroxy(phenyl)methyl]pyrolidin-2-yl}methyl)-N-[(3-phenyl-1H-1,2,4-triazol-5-yl)methyl]benzamide]
1 to 9.9 nM	CN(Cc1cccnc1)C(=O)c1ccc(C[C@@H]2CC[C@H]([C@H](O)c3ccccc3)N2)cc1 [Example 51, 4-({(2S,5R)-5-[(R)-hydroxy(phenyl)methyl]pyrrolidin-2-yl}methyl)-N-methyl-N-(pyridine-3-ylmethyl)benzamide]

Reference: US8604038B2, “Pyrrolidine derived beta 3 adrenergic receptor agonists” (Merck Sharp & Dohme Corp., priority 2009, dated 2013)
